From patent US6455504B1, “Pesticidal macrolides” (priority 1999, dated 2002)

Tests used:
[1] = system: Beet Armyworm (Spodoptera littoralis) larvae; experiment: Beet Armyworm Topical Assay; type: in vivo; details: rate 1 ug/larva, 21° C.
Procedure: B. Beet Armyworm (Spodoptera littoralis) Topical Assay.
An additional measure of the relative insecticidal activities of the formula 1 compounds was generated by using a 1 μg/μL methanol solution of each compound applied at 1 μL per larva of laboratory-reared Spodoptera littoralis, (mean wt of 43 mg). Each compound was applied along the dorsum of each of six larvae. Treated larvae were then held for five days at 21° C., 60% RH in six well plastic culture plates. Larvae were each supplied with a 1 cm^3 of agar-based lepidoptera diet for sustenance during the 5-day post-exposure interval. Percent mortality was determined at the end of a five day period.

[2] = system: Tobacco Budworm (Heliothis virescens) neonate larvae; experiment: Tobacco Budworm Neonate Drench Assay; type: in vivo; details: rate 50 ppm, 27° C.
Procedure: A. Tobacco Budworm (Heliothis virescens) Neonate Drench Assay.
To compare insecticidal activities of formula 1 compounds in neonate (<6 hr post-eclosion) larval Heliothis virescens, 1 μg/μL acetone solutions of each of the metabolites were first prepared. The acetone solutions were then diluted with Millipore H2O containing 0.025% Triton X-100 surfactant to yield treatments of 25 or 50 ppm. One milliliter of either concentration of each metabolite was then pipetted directly over and onto a 100-mm diameter #1 Whatman qualitative filter paper circle upon which 20 tobacco budworm neonate larvae had been gently placed. Each treated filter paper and its associated larvae was then placed in a 20 mm×100 mm disposable plastic petri plate. One-hour later, a 1 cm^3 portion of agar-based lepidoptera diet (modified Shorey diet, Southland Products, Lake Village, Ariz.) was placed into each plate as a larval food source. The petri plate were held at 27° C. for 24 hr and then percent larval mortality in each treatment was determined.

adult stable fly = experiment: In vivo Mouse/Adult Stable Fly (ASF) Assay; parameters: species or system adult stable fly fed on mice (Mus musculus); details: mice dosed 100 mg/kg, orally or topically
Procedure: On Study Day 0, six, thirty-gram, white laboratory mice (Mus musculus) (8-10 week old, ICR females, Harlan-Sprague-Dawley, Inc., Indianapolis, Ind.) per treatment were dosed with test article or solvent (90% ethyl oleate/10% DMSO), either orally or topically. On Study Day 1, two mice from each treatment were anesthetized with a 0.25 mL intramuscular injection of a combination of 1.0 mL ketamine (Fort Dodge, Ketaset®, ketamine HCl injection, 100 mg/mL) and 1.0 mL xylazine (Bayer, Rompun®, 20 mg/mL injectable) in 4.5 mL sterile water. The anesthetized mice were placed in the fly boxes containing 30 adult stable fly. The anesthetized mice were left in the boxes for up to 60 minutes and the flies allowed to obtain a blood meal undisturbed. After removal from the fly boxes, the unconscious mice were immediately euthanized with CO2. The fly boxes were exposed to a 12-our day/12-hour night cycle for the entire study period. The temperature in the assay room was 68-72° F. and the humidity was 50-60%. These procedures were repeated exactly on Study Days 2 and 3 with the remaining treated mice. Each day the number of dead flies was recorded and fly boxes discarded. Total percent fly mortality was determined for each treatment and compared to fly mortality of continuously fed ASF and ASF fed on solvent treated control mice.

[3] = system: larval blowfly (Phormia regina); experiment: In vitro Larval Blow Fly Assay; parameters: key to efficacy by visual inspection for larvae movement: A indicates mortality as indicated by absence of larvae movement; N indicates that larvae movement was observed; details: for efficacy by visual inspection for larvae movement: up to 48 hours
Procedure: Filter inserts were placed individually in 96-well mictrotiter plates. Each insert was saturated with bovine serum combined with titrated levels of experimental compounds starting at 100 ppm. Approximately 30 larval blowfly (Phormia regina) were placed each well and the entire plate sealed. The plates were incubated for up to 48 hours incubation at approximately 25° C. and 75-85% humidity after which efficacy was determined by visual inspection of each well for larvae movement. The results of testing compounds 1 and 8 are as follows (both compounds were active above 5 ppm): […]

[4] = system: adult stable flies (Stomoxys calcitrans); experiment: In vitro Adult Stable Fly Assay
Procedure: Dental wicks were saturated with serum containing titrated levels of experimental compounds starting at 100 ppm. The dental wicks were placed in petri dishes along with 10 adult stable flies (Stomoxys calcitrans) previously chilled for easier handling. Percent mortality was determined after 24 and 48 hours incubation at approximately 25° C. and 75-85% humidity when compared to a dish containing a wick with control serum only.

[5] = system: larval ticks (Amblyomma americannum); experiment: In vitro Tick Larval Packet Test (LPT) Assay; details: 24 hours
Procedure: Titrated levels of experimental compounds were dissolved in a combination of olive oil and trichloroethylene and pipetted onto squares of laboratory filter paper. After allowing about an hour for the trichloroethylene to evaporate, the filter papers were folded in half and two sides secured with clamps, forming packets.
Approximately, 100 larval ticks (Amblyomma americannum) were placed inside each packet and the remaining open side secured with a clamp. The packets were incubated for 24 hours at approximately 72° F. and 95% humidity. Each packet was opened separately and the number of live and dead larvae determined. Percent mortality was determined for each compound.

With `CCC=CC1CCCC(OC2CCC(NC)C(C)O2)C(C)C(=O)C2=CC3C(C=CC4CC(OC5OC(C)C(OC)C(OC)C5OC)CC43)C2CC(=O)O1` (stereo not drawn) [Compound 3] the “Beet Armyworm Topical (120 hr) Mortality (%)” value [1] was 100%.
In the case of `CCC=CC1CCCC(OC2CCC(N(C)C)C(C)O2)C(C)C(=O)C2=CC3C(C=C(C)C4CC(OC5OC(C)C(OC)C(OC)C5OC)CC43)C2CC(=O)O1` (stereo not drawn) [Compound 7], the “Tobacco Budworm Neonate Drench (24 hr) Mortality (%)” value [2] is reported as 100%.
With `CCC=CC1CCCC(OC2CCC(N(C)C)C(C)O2)C(C)C(=O)C2=CC3C(C=CC4C(O)C(OC5OC(C)C(OC)C(OC)C5OC)CC43)C2CC(=O)O1` (stereo not drawn) [Compound 8] the “% mortality Day 2” value (adult stable fly; Study Day 2) was 46%, the “% mortality Day 3” value (adult stable fly; Study Day 3) was 76% and the “% mortality Day 1” value (adult stable fly; flies fed on Study Day 1) was 13%. For the same compound, the “% mortality Total” value (adult stable fly; total percent fly mortality) was 76%, the “efficacy by visual inspection for larvae movement” value (shortened to “efficacy by visual inspection”) ([3]; 0.15 ppm in bovine serum) was “N” and the “efficacy by visual inspection” value ([3]; 0.31 ppm in bovine serum) was “N”. The “efficacy by visual inspection” value ([3]; 0.62 ppm in bovine serum) was “N”, the “efficacy by visual inspection” value ([3]; 1.25 ppm in bovine serum) was “N” and the “efficacy by visual inspection” value ([3]; 2.5 ppm in bovine serum) was “N”. The “efficacy by visual inspection” value ([3]; 5 ppm in bovine serum) was “A”, the “activity against larval blowfly” value ([3]; above 5 ppm (titrated from 100 ppm)) was “active” and the “% mortality” value ([4]; 0.1 ppm in serum, 24 hr) was 0%. The “% mortality” value ([4]; 0.1 ppm in serum, 48 hr) was 0%, the “% mortality” value ([4]; 0.5 ppm in serum, 24 hr) was 10% and the “% mortality” value ([4]; 0.5 ppm in serum, 48 hr) was 10%. For the same compound, the “% mortality” value ([4]; 1.0 ppm in serum, 24 hr) was 30%, the “% mortality” value ([4]; 1.0 ppm in serum, 48 hr) was 80% and the “% mortality” value ([4]; 5.0 ppm in serum, 24 hr) was 90%. For the same compound, the “% mortality” value ([4]; 5.0 ppm in serum, 48 hr) was 100%, the Percent mortality ([5]; 0.05%/500 ppm) was 12.47% and the Percent mortality ([5]; 0.1%/1000 ppm) was 69.87%. The Percent mortality ([5]; 0.5%/5000 ppm) was 100%.
